# Measurements: patent US6734318B2, “Fluorous triphase and other multiphase systems” (University of Pittsburgh, priority 2001, dated 2004)
# Where two headings read alike, the source gives them in different places. Marks after values point to notes of the source that are not given here.
# Experiments:
# [1] = Transfer of organic compounds between two MeCN phases through an FC-72 phase (U-tube); format: physicochemical; conditions: two MeCN phases through FC-72, 23° C., 3 days
# [2] = between FC-72 and MeOH
# [3] = Selective transport of a fluorous-tagged component of a mixture through FC-72 between two acetonitrile phases; format: physicochemical
# [4] = U-tube transport of guest molecules from aqueous S-phase through FC-72 F-phase to basic aqueous P-phase, with or without fluorous transport agent 3b; format: physicochemical; conditions: transport agent 3b about 1 mM in FC-72; S-phase water, P-phase pH 11.5 phosphate buffer; ambient temperature
# Description: In an illustrative example, several transport experiments were carried out with a variety of guest molecules and fluorous transport agent 3b. The F-phase included transport agent 3b, at about 1 mM in the fluorous solvent FC-72. This F-phase was contacted in a U-tube with a first phase containing various organic compounds in water and a second aqueous phase containing hydroxide ion (pH 11.5 phosphate buffer). After various periods of time at ambient temperature, a portion of the more basic, P-phase was removed and subjected to quantitative analysis by UV absorbance spectrophotometry. The measured absorbances were converted to the concentration of each organic compound by the use of a calibration curve. The organic solutes tested were phenobarbital, secobarbital, mephobarbital, thiopental, 2-ethyl, 2-phenylmalonamide, and p-toluenesulfonate. […] The amount of each compound transported (as a fraction of the amount in the S-phase) is plotted versus time. The data points represent behavior of mephobarbital (represented by solid squares), secobarbital (represented by open squares), thiopental (represented by triangles), phenobarbital (represented by diamonds), malonamide and p-toluenesulfonate (both represented by open circles). Each of the barbiturates was transported through the fluorous phase in the presence of transport agent 3b. […]
# [5] = Transfer of 2a between two organic phases through an FC-72 phase (U-tube); format: physicochemical; conditions: FC-72 stirred 23° C., 3 days
# Description: 2-(2-Naphtylethanol) 2a (10 mg) was dissolved in an organic solvent (1 ml) and the mixture was put into one side (side A) of U-tube 10 of FIG. 1, in which FC-72 (10 ml) was placed. The other organic solvent was put into the other side (side B) of U-tube 10 and the center phase (FC-72) was stirred (via, for example, magnetic stirring element 130) at 23° C. for 3 days without mixing the interfaces between the organic and FC-72 layers. The weights of each organic phase were measured after evaporation.
compound,measurement,setting,value
N#CCc1ccc2ccccc2c1 [2-naphthylacetonitrile],ratio (A/B),[1],99/1
N#CCC#N [malononitrile],ratio (A/B),[1],>99/1
CC(=O)Oc1ccc2ccccc2c1 [2-naphthyl acetate],ratio (A/B),[1],94/6
"CC(C)[Si](CCC(F)(F)C(F)(F)C(F)(F)C(F)(F)C(F)(F)C(F)(F)C(F)(F)C(F)(F)F)(O[C@@H](C)c1ccc2ccccc2c1)C(C)C [1f, diisopropyl-1H,1H,2H,2H-perfluorodecanylsilyl (S)-(−)-1-(2-naphthyl)ethyl ether]",Kp (partition coefficient),[2],1.5
CC(=O)Cc1ccc2ccccc2c1 [2-naphthylacetone],ratio (A/B),[1],91/9
"CC(C)[Si](CCC(F)(F)C(F)(F)C(F)(F)C(F)(F)C(F)(F)C(F)(F)F)(OCCc1ccc2ccccc2c1)C(C)C [1c, Diisopropyl-1H,1H,2H,2H-perfluorooctanylsilyl 2-naphthylethyl ether]",Kp (partition coefficient),[2],0.39
O=C(O)Cc1ccc2ccccc2c1 [2-naphthylacetic acid],ratio (A/B),[1],>99/1
"CC(C)[Si](CCC(F)(F)C(F)(F)C(F)(F)C(F)(F)C(F)(F)C(F)(F)C(F)(F)C(F)(F)F)(OCCc1ccc2ccccc2c1)C(C)C [1a, diisopropyl-1H,1H,2H,2H-perfluorodecanylsilyl 2-naphthylethyl ether]",partition coefficient,"FC-72 / CH2Cl2, 23 C",0.14
same,partition coefficient,"FC-72 / DMF, 23 C",0.38
same,partition coefficient,"FC-72 / EtOH, 23 C",0.91
same,partition coefficient,"FC-72 / MeCN, 23 C",0.74
same,partition coefficient,"FC-72 / MeOH, 23 C",0.92
same,partition coefficient,"FC-72 / THF, 23 C",0.04
same,Kp (partition coefficient),[2],0.92
"CC(C)[Si](CCC(F)(F)C(F)(F)C(F)(F)C(F)(F)C(F)(F)C(F)(F)C(F)(F)C(F)(F)F)(OCC=Cc1ccccc1)C(C)C [1g, (3,3,4,4,5,5,5,6,6,7,7,8,8,9,9,10,10,10,10-heptadecafluorodecyl)-diisopropyl(3-phenyl-allyloxy)silane]",Kp (partition coefficient),[2],1.3
same,Mass of the residue (P-phase),"[3]; P-phase removed at 3 h, 1/1 mixture of 2a and 1g in acetonitrile S-phase",4.5 mg
same,Mass of the residue (P-phase),"[3]; P-phase removed at 7 h, fresh acetonitrile after each removal",6 mg
same,Mass of the residue (P-phase),"[3]; P-phase removed at 24 h, fresh acetonitrile after each removal",7 mg
CC(O)c1ccc2ccccc2c1 (stereo not shown) [1-(2-naphthyl)ethanol],ratio (A/B),[1],96/4
OCC=Cc1ccccc1 [cinnamyl alcohol],ratio (A/B),[1],99/1
p-toluenesulfonate,transport through the fluorous phase to the P-phase,[4],no transport
CCc1ccc2ccccc2c1 [2-ethylnaphthalene],ratio (A/B),[1],66/33^a
"OCCc1ccc2ccccc2c1 [2a, 2-(2-naphthyl)ethanol]",ratio of 2a (A/B),"[5]; side A MeCN, side B MeCN",99/1
same,ratio of 2a (A/B),"[5]; side A MeCN, side B MeOH",>99/1
same,ratio of 2a (A/B),"[5]; side A MeCN, side B THF",>99/1
same,ratio of 2a (A/B),"[5]; side A MeOH, side B MeCN",99/1
same,ratio of 2a (A/B),"[5]; side A MeOH, side B MeOH",99/1
same,ratio of 2a (A/B),"[5]; side A MeOH, side B THF",96/4
same,ratio of 2a (A/B),"[5]; side A THF, side B MeOH",97/3
same,ratio of 2a (A/B),"[5]; side A THF, side B THF",90/10
same,ratio (A/B),[1],99/1
same,presence in P-phase by TLC or 1H NMR,"[3]; after 1d, 1/1 mixture with 1g in acetonitrile S-phase",not detected
CCCCCCCCCCCCO [dodecanol],ratio (A/B),[1],96/4
CC(N)c1cccc2ccccc12 (stereo not shown) [1-(1-naphthyl)ethylamine],ratio (A/B),[1],82/18
